Reference: US8293781B2, “Indole derivatives having cPLA2 inhibiting activity and applications and production methods of the same” (Daiichi Sankyo Company, Limited, priority 2007, dated 2012)
Where a name gives a salt, the structure may show the parent alone. Read-outs that look alike come from different tables or passages of the source.

Biological target: T1, cPLA2 crudely purified from the cytoplasm fraction of U937 (Homo sapiens, UniProt P47712)
T1 construct: cPLA2 crudely purified from the cytoplasm fraction of U937; endogenous in cells; host or cells: U937 cells (cytoplasm fraction, crude purification)
T1 sequence (P47712 1-749): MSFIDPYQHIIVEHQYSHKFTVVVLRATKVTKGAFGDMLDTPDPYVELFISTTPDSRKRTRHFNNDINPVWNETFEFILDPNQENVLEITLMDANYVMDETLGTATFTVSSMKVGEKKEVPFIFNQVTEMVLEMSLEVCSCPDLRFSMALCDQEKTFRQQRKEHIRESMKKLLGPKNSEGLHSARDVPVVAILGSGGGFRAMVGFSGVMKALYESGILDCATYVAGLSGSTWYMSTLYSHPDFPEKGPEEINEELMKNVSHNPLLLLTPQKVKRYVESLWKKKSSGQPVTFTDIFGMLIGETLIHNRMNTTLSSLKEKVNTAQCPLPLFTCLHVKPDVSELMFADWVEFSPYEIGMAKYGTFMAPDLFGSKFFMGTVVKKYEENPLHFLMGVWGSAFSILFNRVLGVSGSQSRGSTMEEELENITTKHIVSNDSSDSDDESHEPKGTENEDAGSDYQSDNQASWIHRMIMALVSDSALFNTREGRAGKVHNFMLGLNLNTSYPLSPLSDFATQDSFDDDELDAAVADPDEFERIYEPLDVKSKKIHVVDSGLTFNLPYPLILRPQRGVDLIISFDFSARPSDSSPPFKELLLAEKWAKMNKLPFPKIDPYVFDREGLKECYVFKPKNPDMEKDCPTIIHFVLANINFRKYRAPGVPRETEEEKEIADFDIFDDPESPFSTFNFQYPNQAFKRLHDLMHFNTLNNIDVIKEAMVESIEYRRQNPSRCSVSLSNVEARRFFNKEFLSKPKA
Experiment: Measurement of cPLA2 inhibitory activity (release of [14C]-arachidonic acid from phosphatidyl choline liposome)
Format: biochemical
Description: The cPLA2 inhibitory activity was measured based on the method described in the document [See H. Naraba et al., J. Immunol. 160, 2974-2982 (1998)] and modified in the following way.
A DMSO solution of the present invitation compounds was diluted to 2.5 times the final concentration with the assay buffer (4 mM CaCl2, 2 mM dithiothreitol, 150 mM NaCl, 50 mM HEPES buffer solution (pH7.5)) containing 0.55 mg/ml BSA. To 20 μl of this, cPLA2 crudely purified from the cytoplasm fraction of U937 was added in an amount of 10 μl after dilution by an assay buffer solution containing 0.55 mg/ml BSA. A liposome prepared by ultrasonically treating L-α-1-palmitoyl-2-[14C]arachidonyl-phosphatidyl choline (made by PerkinElmer) and adjusted by the assay buffer solution to a concentration of phosphatidyl choline of 10 μM was added and stirred in by an amount of 20 μl and the mixture was reacted at 37° C. for 60 minutes. The [^14C]-arachidonic acid released due to the reaction was extracted based on the method described in the documents [see V. P. Dole et al., J. Biol. Chem. 235, 2595 (1960)], was added to Lumaplate® (made by PerkinElmer), dried, then measured by Topcount® (made by PerkinElmer). Except for not adding the present invention compounds, the same procedure was performed as the above to obtain the enzyme control. Except for not adding the invention compounds and not adding the enzyme, the same procedure was followed as above to obtain a negative control. The inhibiting activity was expressed as a percent (%) of the value minus the negative control with respect to the value of the enzyme control minus the negative control. From this, the 50% inhibiting concentration (IC50, μM) was calculated.

[1] = cPLA2 from U937 cytoplasm fraction, [14C]arachidonyl-phosphatidyl choline liposome, 37° C., 60 minutes, read-out: cPLA2 inhibitory activity, 50% inhibiting concentration IC50

| SMILES | IC50 | IC50 [1] |
| --- | --- | --- |
| O=C(O)/C=C/c1ccc2c(c1)c(C(=O)c1ccccc1)cn2-c1ccccc1 [Example 3, (2E)-3-(3-benzoyl-1-phenyl-1H-indol-5-yl)-2-propenoic acid] | 0.494 µM |  |
| O=C(O)CCc1ccc2c(c1)c(C(=O)c1ccccc1)cn2-c1ccccc1 [Example 4, 3-(3-benzoyl-1-phenyl-1H-indol-5-yl)propanoic acid] | 0.146 µM |  |
| O=C(O)/C=C/c1ccc2c(c1)c(Cc1ccccc1)cn2-c1ccccc1 [Example 7, (2E)-3-(3-benzyl-1-phenyl-1H-indol-5-yl)-2-propenoic acid] |  | 1.04 µM |
| O=C(O)CCc1ccc2c(c1)c(Cc1ccccc1)cn2-c1ccccc1 [Example 8, 3-(3-benzyl-1-phenyl-1H-indol-5-yl)propanoic acid] |  | 0.182 µM |
| O=C(O)/C=C/c1ccc2c(c1)c(C(=O)Cc1ccccc1)cn2-c1ccccc1 [Example 11, (2E)-3-[1-phenyl-3-(phenylacetyl)-1H-indol-5-yl]-2-propenoic acid] | 1.91 µM |  |
| O=C(O)CCc1ccc2c(c1)c(C(=O)Cc1ccccc1)cn2-c1ccccc1 [Example 12, 3-[1-phenyl-3-(phenylacetyl)-1H-indol-5-yl]propanoic acid] | 0.261 µM |  |
| O=C(O)/C=C/c1ccc2c(c1)c(CCc1ccccc1)cn2-c1ccccc1 [Example 15, (2E)-3-[1-phenyl-3-(2-phenylethyl)-1H-indol-5-yl]-2-propenoic acid] |  | 0.316 µM |
| O=C(O)CCc1ccc2c(c1)c(CCc1ccccc1)cn2-c1ccccc1 [Example 16, 3-[1-phenyl-3-(2-phenylethyl)-1H-indol-5-yl]propanoic acid] |  | 0.075 µM |
| N#CNC(=O)CCc1ccc2c(c1)c(CCc1ccccc1)cn2-c1ccccc1 [Example 18, N-cyano-3-[1-phenyl-3-(2-phenylethyl)-1H-indol-5-yl]propanamide] |  | 0.976 µM |
| O=C(CCc1ccc2c(c1)c(CCc1ccccc1)cn2-c1ccccc1)Nc1nnn[nH]1 [Example 19, 3-[1-phenyl-3-(2-phenylethyl)-1H-indol-5-yl]-N-tetrazolylpropanamide] |  | 10.8 µM |
| O=C(CCc1ccc2c(c1)c(CCc1ccccc1)cn2-c1ccccc1)NO [Example 21, N-hydroxy-3-[1-phenyl-3-(2-phenylethyl)-1H-indol-5-yl]propanamide] |  | 15.8 µM |
| NC(=O)CCc1ccc2c(c1)c(CCc1ccccc1)cn2-c1ccccc1 [Example 22, 3-[1-phenyl-3-(2-phenylethyl)-1H-indol-5-yl]propanamide] |  | > 100 µM |
| c1ccc(CCc2cn(-c3ccccc3)c3ccc(CCc4nnn[nH]4)cc23)cc1 [Example 24, 1-phenyl-3-(2-phenylethyl)-5-[2-(1H-tetrazol-5-yl)ethyl]-1H-indole] |  | 12.8 µM |
| CC(C(=O)c1cn(-c2ccccc2)c2ccc(/C=C/C(=O)O)cc12)c1ccccc1 (centres unmarked) [Example 26, (2E)-3-[1-phenyl-3-(2-phenylpropanoyl)-1H-indol-5-yl]-2-propenoic acid] |  | 3.4 µM |
| CC(C(=O)c1cn(-c2ccccc2)c2ccc(CCC(=O)O)cc12)c1ccccc1 (centres unmarked) [Example 27, 3-[1-phenyl-3-(2-phenylpropanoyl)-1H-indol-5-yl]propanoic acid 2-amino-2-(hydroxymethyl)propane-1,3-diol salt (1:1)] |  | 0.385 µM |
| CC(Cc1cn(-c2ccccc2)c2ccc(CCC(=O)O)cc12)c1ccccc1 (centres unmarked) [Example 28, 3-[1-phenyl-3-(2-phenylpropyl)-1H-indol-5-yl]propanoic acid 2-amino-2-(hydroxymethyl)propane-1,3-diol salt (1:1)] |  | 0.258 µM |

| SMILES | IC50 | IC50 [1] |
| --- | --- | --- |
| CC(Cc1cn(-c2ccccc2)c2ccc(CCC(N)=O)cc12)c1ccccc1 (centres unmarked) [Example 29, 3-[1-phenyl-3-(2-phenylpropyl)-1H-indol-5-yl]propanamide] |  | 21.3 µM |
| CC(Cc1cn(-c2ccccc2)c2ccc(/C=C/C(=O)O)cc12)c1ccccc1 (centres unmarked) [Example 33, (2E)-3-[1-phenyl-3-(2-phenylpropyl)-1H-indol-5-yl]-2-propenoic acid] |  | 0.662 µM |
| CCC(C(=O)c1cn(-c2ccccc2)c2ccc(/C=C/C(=O)O)cc12)c1ccccc1 (centres unmarked) [Example 35, (2E)-3-[1-phenyl-3-(2-phenylbutanoyl)-1H-indol-5-yl]-2-propenoic acid] |  | 5.81 µM |
| CCC(C(=O)c1cn(-c2ccccc2)c2ccc(CCC(=O)O)cc12)c1ccccc1 (centres unmarked) [Example 36, 3-[1-phenyl-3-(2-phenylbutanoyl)-1H-indol-5-yl]propanoic acid 2-amino-2-(hydroxymethyl)propane-1,3-diol salt (1:1)] |  | 0.33 µM |
| CCC(Cc1cn(-c2ccccc2)c2ccc(CCC(=O)O)cc12)c1ccccc1 (centres unmarked) [Example 37, 3-[1-phenyl-3-(2-phenylbutyl)-1H-indol-5-yl]propanoic acid 2-amino-2-(hydroxymethyl)propane-1,3-diol salt (1:1)] |  | 1.45 µM |
| O=C(O)/C=C/c1ccc2c(c1)c(C(=O)C1(c3ccccc3)CC1)cn2-c1ccccc1 [Example 39, (2E)-3-{1-phenyl-3-[(1-phenylcyclopropyl)carbonyl]-1H-indol-5-yl}-2-propenoic acid] |  | 10.8 µM |
| O=C(O)CCc1ccc2c(c1)c(C(=O)C1(c3ccccc3)CC1)cn2-c1ccccc1 [Example 40, 3-{1-phenyl-3-[(1-phenylcyclopropyl)carbonyl]-1H-indol-5-yl}propanoic acid] |  | 2.3 µM |
| O=C(O)CCc1ccc2c(c1)c(CC1(c3ccccc3)CC1)cn2-c1ccccc1 [Example 41, 3-{1-phenyl-3-[(1-phenylcyclopropyl)methyl]-1H-indol-5-yl}propanoic acid 2-amino-2-(hydroxymethyl)propane-1,3-diol salt (1:1)] |  | 0.634 µM |
| Cc1c(C(=O)Cc2ccccc2)c2cc(/C=C/C(=O)O)ccc2n1-c1ccccc1 [Example 44, (2E)-3-[2-methyl-1-phenyl-3-(phenylacetyl)-1H-indol-5-yl]-2-propenoic acid] | 0.421 µM |  |
| Cc1c(C(=O)Cc2ccccc2)c2cc(CCC(=O)O)ccc2n1-c1ccccc1 [Example 45, 3-[2-methyl-1-phenyl-3-(phenylacetyl)-1H-indol-5-yl]propanoic acid] | 0.225 µM |  |
| O=C(O)/C=C/c1ccc2c(c1)c(C(=O)c1cccc3ccccc13)cn2-c1ccccc1 [Example 50, (2E)-3-[3-(1-naphthoyl)-1-phenyl-1H-indol-5-yl]-2-propenoic acid] | 6.99 µM |  |
| O=C(O)CCc1ccc2c(c1)c(Cc1cccc3ccccc13)cn2-c1ccccc1 [Example 51, 3-[3-(1-naphthylmethyl)-1-phenyl-1H-indol-5-yl]propanoic acid] | 0.704 µM |  |
| O=C(O)/C=C/c1ccc2c(c1)c(C(=O)c1ccc3ccccc3c1)cn2-c1ccccc1 [Example 53, (2E)-3-[3-(2-naphthoyl)-1-phenyl-1H-indol-5-yl]-2-propenoic acid] | 5.52 µM |  |
| O=C(O)CCc1ccc2c(c1)c(Cc1ccc3ccccc3c1)cn2-c1ccccc1 [Example 54, 3-[3-(2-naphthylmethyl)-1-phenyl-1H-indol-5-yl]propanoic acid] |  | 6.12 µM |
| O=C(O)/C=C/c1ccc2c(c1)c(C(=O)Cc1ccc(Cl)cc1)cn2-c1ccccc1 [Example 56, (2E)-3-{3-[(4-chlorophenyl)acetyl]-1-phenyl-1H-indol-5-yl}-2-propenoic acid] | 6.4 µM |  |
| O=C(O)CCc1ccc2c(c1)c(C(=O)Cc1ccc(Cl)cc1)cn2-c1ccccc1 [Example 57, 3-{3-[(4-chlorophenyl)acetyl]-1-phenyl-1H-indol-5-yl}propanoic acid] | 1.39 µM |  |
